According to paper PMC6987146, “Potent inhibition of HIV replication in primary human cells by novel synthetic polyketides inspired by Aureothin” (Scientific Reports, 2020):

Experiments:
HIV-1LAI [1] = assay: EASY-HIT assay: infectious virus production by LC5-RIC reporter cells exposed to HIV-1LAI; format: cell-based
Protocol: To identify natural compounds with anti-HIV activity we screened a collection of 10,000 natural compounds: Anti-HIV activity was evaluated by determining compound effects on infectious virus production by LC5-RIC cells which are highly susceptible for HIV and contain a DsRed1-encoding reporter gene activated by HIV-infection[6]–[8]. For screening, cultures of LC5-RIC reporter cells were first exposed to virus in the presence of the compound (first-step of the assay). Subsequently, supernatants of these cultures were transferred to secondary plates with uninfected LC5-RIC cells. The fluorescent signal of the cultures in the secondary plates served as a measure of compound effects on infectious virus production.
Anti-HIV activities of compounds were profiled in LC5-RIC cells with the EASY-HIT assay as described in[6]. Briefly, LC5-RIC cells were first exposed to virus and compounds (first step of the assay). Compound effects on infectious virus production were determined by transferring aliquots of supernatants of compound-treated cultures to secondary plates and measurement of fluorescent signal intensities in secondary plates after 72 h (second step of the assay). Fluorescent signal intensities determined for compound-treated cultures were normalized to those determined for untreated virus-exposed cultures.

HIV-1LAI [2] = assay: Inhibition of HIV infection of human PBMCs (infectious virus production, read out on LC5-RIC cells); format: cell-based; conditions: human PBMCs exposed to HIV-1LAI, mean ± SD
Protocol: To evaluate anti-HIV efficacies of test compounds in primary human target cells, stimulated PBMCs were seeded in 96-well plates at a density of 500,000 cells per well, different #7concentrations of the compound (serial dilutions) and virus inoculum (MOI of 0.5) added to the PBMCs and cultures incubated for 48 h. Infectious virus production was quantified by transferring 35 µl of supernatant from the PBMC cultures to LC5-RIC cells, seeded in black 96-well plates one day earlier. LC5-RIC cultures were then incubated for 72 h and analysed for DsRed1 reporter expression and anti-HIV activity calculated as described for the EASY-HIT assay.

HIV-1LAI [3] = assay: Photostability of anti-HIV activity (24 h illumination vs dark, EASY-HIT read-out); format: cell-based; conditions: 24 h illumination; compounds at IC90; LC5-RIC
Protocol: Figure 1 Profiling of photostability of anti-HIV activity of Aureothin and synthetic Aureothin-derivatives. Anti-HIV activity of compound samples illuminated for 24 h were normalised to anti-HIV activity of samples of the same compound kept in the dark. Anti-HIV activity was measured by quantifying the amounts of infectious virus produced by HIV-1LAI exposed LC5-RIC cells treated with compounds at IC90 concentrations (Supplementary Table S1). […] Shown are means of at least three independent experiments with biological triplicates (n ≥ 3; m = 3) and the standard error of the mean (SEM) indicated.
LC5-RIC cells were plated as described for the EASY-HIT assay. […] Plates were incubated either in the dark or under constant illumination with a commercially available desk lamp (2X Philips Master PL-S-9W/840/2 P, 30 cm between light source and compounds) for 24 h at room temperature. For analysis of anti-HIV activity, compound samples were transferred to LC5-RIC cells and their anti-HIV activity determined by measuring compound effects on infectious virus production with the EASY-HIT assay. Relative photostability was calculated by normalizing the anti-HIV activity of the illuminated compounds to the antiviral activity of compounds kept in the dark.

LC5-RIC cells = assay: CellTiter-Glo 2.0 cell viability assay in LC5-RIC cells; format: cell-based
Protocol: The following assays were used to profile cell safety of compound treatment in HIV-exposed cultures (LC5-RIC or PBMC): (1) CellTox^TM Green Cytotoxicity Assay, Promega, measures binding of a fluorescent dye to DNA of cells with impaired membrane integrity; (2) CellTiter-Glo® 2.0 Assay, Promega, which measures the amount of ATP in viable cells after lysis using an assay with luminescence read-out. Cells were plated into black 96-well plates followed by overnight incubation at 37 °C, 5% CO2. Compounds dissolved in DMSO were screened at multiple concentrations from 0.6 to 10,000 nM at a final DMSO concentration of 0.04% followed by additional 48 h incubation. Both assays were performed according to manufacturer’s recommendations and consecutively in the above mentioned order. Cells were washed once with PBS between the assays.

[4] = test system: integrated proviral HIV-1 DNA; assay: Integrated proviral HIV-1 DNA by Alu-PCR in LC5-RIC cells; format: cell-based; conditions: HIV-1LAI, 48 h, concentrations >2x IC90, normalized to DMSO
Protocol: Quantitative analysis of integrated copies of HIV proviral DNA by Alu-PCR was performed essentially as described in[46]. Briefly, LC5-RIC cells seeded at a density of 100,000 cells per well in 12-well plates and incubated for 24 h were exposed to test compounds and HIV-1LAI virus inoculum at an MOI of 0.5 and incubated for further 48 h at 37 °C, 5% CO2. Subsequently, cells were harvested and genomic DNA (gDNA) was extracted using the QIAamp DNA Mini Kit (QIAGEN) according to the manufacturer’s protocol. The relative amount of integrated proviral HIV-1 DNA was determined by two-step Alu-PCR[46]. The relative amounts of integrated proviral HIV-1 DNA in treated versus untreated samples were calculated by the 2^(−ΔΔCt) method, with ΔCT values representing CT (HIV) - CT (β-globin) for each sample and ΔΔCT values representing values of treated samples normalized to untreated samples.

HIV-2 = test system: HIV-2; design: method as in PMID 22293827, PMID 10465070; conditions: virus intrinsically resistant; cited from earlier work
[5] = Human immunodeficiency virus 1, LC5-RIC cells exposed to HIV-1LAI, infectious virus production, mean ± SD, read-out: IC50, half maximal inhibitory concentration
[6] = Human immunodeficiency virus 1, read-out: IC50, half maximal inhibitory concentration

Molecule: COc1oc([C@H]2C/C(=C/C(C)=C/c3ccc([N+](=O)[O-])cc3)CO2)c(C)c(=O)c1C [compound 1, Aureothin]
- IC50 (HIV-1LAI [1]; LC5-RIC cells exposed to HIV-1LAI, infectious virus production, mean ± SD, read-out: IC50, half maximal inhibitory concentration): 5.3 ± 0.4 nM
- IC90 (HIV-1LAI [1]; read-out: IC90, 90% inhibitory concentration, LC5-RIC cells exposed to HIV-1LAI, infectious virus production, mean ± SD): 26.8 ± 2.54 nM
- IC50 (HIV-1LAI [2]; read-out: IC50, half maximal HIV-inhibitory concentration): 11.7 ± 1.37 nM
- IC90 (HIV-1LAI [2]; read-out: IC90, 90% HIV-inhibitory concentration): 45 ± 3.33 nM
- loss of anti-HIV-activity compared to the non-illuminated controls (HIV-1LAI [3]): ≥ 50%
- CC50 (LC5-RIC cells): > 10000 nM

Molecule: O=C1Nc2ccc(Cl)cc2[C@@](C#CC2CC2)(C(F)(F)F)O1 [Efavirenz]
- IC50 (HIV-1LAI [1]; [5]): ~1 nM
- reduction of levels of integrated proviral DNA [4]: > 90%
- activity against HIV-2 (HIV-2): ineffective against HIV-2

Molecule: COc1oc([C@H]2C/C(=C/C(C)=C/C(C)=C/C(C)=C/c3ccc([N+](=O)[O-])cc3)CO2)c(C)c(=O)c1C [Neoaureothin]
- IC50 (HIV-1LAI [1]; [5]): 2.2 ± 0.06 nM

Molecule: C[C@@H]1CCO[C@H]2Cn3cc(C(=O)NCc4ccc(F)cc4F)c(=O)c(O)c3C(=O)N12 [Dolutegravir]
- IC50 (HIV-1LAI [1]; [6]): ~1 nM
- reduction of levels of integrated proviral DNA [4]: > 90%

Molecule: CC(C)(C)NC(=O)[C@@H]1C[C@@H]2CCCC[C@@H]2CN1C[C@@H](O)[C@H](Cc1ccccc1)NC(=O)[C@H](CC(N)=O)NC(=O)c1ccc2ccccc2n1 [Saquinavir]
- IC50 (HIV-1LAI [1]; [6]): ~10 nM

Molecule: Enfuvirtide
- activity against HIV-2 (HIV-2): ineffective against HIV-2
